Measurements reported in patent publication US4339442A, “Gynosaponins, their use and a process for preparing the same” (priority 1980, dated 1982).

Key:
Type in all cases: cell-based, male wister rats
fat cells [1] = assay: Synthesis of fat from glucose in fat cells; settings: 20 μg/ml; for Power for synthesis of neutral fat from glucose: 37° C., half an hour; for activation at 20 µg/mL: Rattus norvegicus, 0.5 h, read-out: Rate of promotion
Procedure: (§1) Fat tissues were separated from the epididymides of male wister rats weighing 150 to 180 g each, and fat cells were obtained therefrom in accordance with the Rodbell's method [M. Rodbell, J. Biol. Chem., 239, 375 (1964)]. A small section was prepared from 4 g of the fat tissue, and placed in 10 ml. of Krebs-Ringer bicarbonate buffer containing 0.4 g of albumin, 10 mg of collagenase and 5 mg of glucose, and having a pH value of 7.4. It was heated at 37° C. for 50 minutes, and subjected to centrifugal separation at 300 rpm, whereby a floating fat cell layer was separated. Added into the fat cell were 10 ml. of the aforesaid buffer (pH 7.4), and the solution was carefully stirred to wash the fat cell, followed by centrifugal separation at 300 rpm for 30 seconds. This procedure was repeated twice, whereby the fat cells were washed perfectly, and these fat cells were used for the tests.
^14 C-glucose having its carbon atoms marked with radioactivity was reacted upon fat cells, and a Geiger count was read to determine the amount of the glucose participating in the fat synthesis and incorporated into the fat cells as a neutral fat, whereby gynosaponins were tested for their effects on the power of the glucose for fat synthesis.
More specifically, the fat cells obtained by treating with collagenase were suspended in KRB, and 0.35 ml. of the resulting solution containing 100 mg of fat cells was placed into a test tube with 0.1 ml. of each saponin solution containing 20 μg of saponin, 0.5 ml. of a 5% albumin solution in KRB, containing 10 mM glucose and having a pH value of 7.4, and 0.05 ml. of a ^14 C-glucose solution which was a 0.5 μCi KRP solution having a pH value of 7.4 and containing 10 mM glucose. They were heated at 37° C. for half an hour, and after 5 ml. of Dole's extract were added and the whole was shaked for five minutes, 3 ml. of heptane and 2 ml. of water were added, and the whole was shaked for five minutes. 3 ml. of a heptane layer were separated, and after an alkaline ethanol solution (0.5 N sodium hydroxide solution, 50 % ethanol solution) was added in the amount of 3 ml., the whole was shaked for five minutes. Then, 1 ml. of an ethanol layer was separated, and 10 ml. of a toluene scintillation solution were added thereinto, followed by determination according to the method of Skipski et al. [Biochem. Biophys. Acta, 106, 386 (1965)].

fat cells [2] = assay: Decomposition of the fat in the fat cell by ACTH; settings: 37° C., two hours; for inhibition at 20 µg/mL: Rattus norvegicus, 2 h, read-out: Rate of inhibition
Procedure: as §1
The fat cells obtained by treating with collagenase were suspended in Krebs-Ringer bicarbonate buffer (KRB) having a pH value of 7.4. Placed into a test tube were 0.3 ml. of the solution thus obtained (containing 100 mg of fat cells), 0.1 ml. of ACTH solution containing 1 μg of ACTH, 0.1 ml. of each saponin solution containing 500 μg of saponin, and 0.3 ml. of a 5% alubumin solution in KRB, and having a pH value adjusted to 7.4. They were heated at 37° C. for two hours, and the amount of the resulting free fatty acid was determined in accordance with the Dole's method [V. P. Dole, J. Biol. Chem., 35, 150 (1958)].
Namely, 3 ml. of Dole's extract were separated into the reaction system, and 1 ml. of a thymol blue solution was added thereinto. Nitrogen was blown into the resulting solution, and the solution was titrated with a 0.008 N aqueous solution of sodium hydroxide, while it was being stirred. The amount of the resulting free fatty acid was determined in accordance with a calibration curve.
The rate of inhibition against fat decomposition was obtained in accordance with the following equation: [formula] wherein A stands for the amount of the free fatty acid formed by addition of ACTH along in the amount of 1 μg/ml.; and B stands for the amount of the free fatty acid formed by addition of ACTH and saponin in the amount of 1 μg/ml. and 20 μg/ml., respectively.

fat cells [3] = assay: Decomposition by adrenalin of the fat in the fat cells; settings: adrenalin 1 μg/ml + saponin 20 μg/ml, 37° C., two hours; for inhibition at 20 µg/mL: Rattus norvegicus, 2 h, read-out: Rate of inhibition
Procedure: A small section was prepared from 4 g of the fat tissue, and placed in 10 ml. of Krebs-Ringer bicarbonate buffer containing 0.4 g of albumin, 10 mg of collagenase and 5 mg of glucose, and having a pH value of 7.4. […] Added into the fat cell were 10 ml. of the aforesaid buffer (pH 7.4), and the solution was carefully stirred to wash the fat cell, followed by centrifugal separation at 300 rpm for 30 seconds. This procedure was repeated twice, whereby the fat cells were washed perfectly, and these fat cells were used for the tests.
The fat cells obtained by treating with collagenase were suspended in Krebs-Ringer phosphate buffer (KRP) having a pH value of 7.4. Placed into a test tube were 0.3 ml. of the solution thus obtained, and containing 100 mg of fat cells, 0.1 ml. of an adrenalin solution containing 1 μg of adrenalin, 0.1 ml. of a saponin solution containing 20 μg of saponin, and 0.5 ml. of a 5% albumin solution in KRP, and having a pH value adjusted to 7.4. […] More specifically, 3 ml. of Dole's extract were placed in the reaction system, and after they were shaked for five minutes, 3 ml. of heptane were dispensed, and 1 ml. of a thymol blue solution was added thereinto. The resulting solution was titrated with a 0.008 N aqueous solution of sodium hydroxide, while it was being stirred with nitrogen, and the amount of the resulting free fatty acid was determined in accordance with a calibration curve.
The rate of inhibition was obtained in accordance with the equation shown at (1) above.

[4] = ACTH 1 μg/ml + saponin 20 μg/ml

Compound	Power for synthesis of neutral fat from glucose (fat cells [1])	Rate of promotion (fat cells [1]; none = 100)	Free fatty acid formed by decomposition of fat (fat cells [2]; [4])	Rate of inhibition (fat cells [2]; [4])	Free fatty acid formed by decomposition of fat (fat cells [3])	Rate of inhibition (fat cells [3])	activation at 20 µg/mL (fat cells [1]; none = 100)	inhibition at 20 µg/mL (fat cells [2]; [4])	inhibition at 20 µg/mL (fat cells [3])	Free fatty acid formed by decomposition of fat (fat cells [2]; ACTH alone, 1 μg/ml)
20S,26-Hydroxyprotopanaxadiol-3-O-{[β-D-glucopyranosyl (1→2)-α-L-rhamnopyranosyl (1→6)]-β-D-glucopyranoside}-20-O-[β-D-glucopyranosyl (1→6)-β-D-glucopyranoside] [gynosaponin T]	11,150 cpm/g	52%	6.3 μ Eq/g	25%	13.1 μ Eq/g	7%	–	–	–	–
CC(=CCC[C@](C)(O[C@@H]1O[C@H](CO)[C@@H](O)[C@H](O)[C@H]1O)[C@H]1CC[C@]2(C)[C@@H]1[C@H](O)C[C@@H]1[C@@]3(C)CC[C@H](O)C(C)(C)[C@@H]3CC[C@]12C)CO [progynosapogenin O1, 20S,26-Hydroxyprotopanaxadiol-20-O-β-D-glucopyranoside]	11,200 cpm/g	–	5.9 μ Eq/g	–	12.6 μ Eq/g	–	52%	30%	11%	–
CC(C)=CCC[C@](C)(O[C@@H]1O[C@H](CO[C@@H]2O[C@H](CO)[C@@H](O)[C@H](O)[C@H]2O)[C@@H](O)[C@H](O)[C@H]1O)[C@H]1CC[C@]2(C)[C@@H]1[C@H](O)C[C@@H]1[C@@]3(C)CC[C@H](O[C@@H]4O[C@H](CO)[C@@H](O)[C@H](O)[C@H]4O)C(C)(C)[C@@H]3CC[C@]12C [gynosaponin S, 20S-Protopanaxadiol-3-O-β-D-glucopyranoside-20-O-[β-D-glucopyranosyl (1→6)-β-D-glucopyranoside]]	10,100 cpm/g	–	5.4 μ Eq/g	–	13.5 μ Eq/g	–	47%	36%	4%	–
CC(C)=CCC[C@](C)(O[C@@H]1O[C@H](CO)[C@@H](O)[C@H](O)[C@H]1O)[C@H]1CC[C@]2(C)[C@@H]1[C@H](O)C[C@@H]1[C@@]3(C)CC[C@H](O[C@@H]4O[C@H](CO[C@@H]5O[C@@H](C)[C@H](O)[C@@H](O)[C@H]5O)[C@@H](O)[C@H](O)[C@H]4O)C(C)(C)[C@@H]3CC[C@]12C [gynosaponin K, 20S-Protopanaxadiol-3-O-[α-L-rhamnopyranosyl (1→6)-β-D-glucopyranoside]-20-O-β-D-glucopyranoside]	13,600 cpm/g	–	6.1 μ Eq/g	–	13.8 μ Eq/g	–	63%	27%	2%	–
CC(C)=CCC[C@](C)(O[C@@H]1O[C@H](CO[C@@H]2O[C@@H](C)[C@H](O)[C@@H](O)[C@H]2O)[C@@H](O)[C@H](O)[C@H]1O)[C@H]1CC[C@]2(C)[C@@H]1[C@H](O)C[C@@H]1[C@@]3(C)CC[C@H](O[C@@H]4O[C@H](CO[C@@H]5O[C@@H](C)[C@H](O)[C@@H](O)[C@H]5O)[C@@H](O)[C@H](O)[C@H]4O)C(C)(C)[C@@H]3CC[C@]12C [gynosaponin G, 20S-Protopanaxadiol-3,20-bis-O-[α-L-rhamnopyranosyl (1→6)-β-D-glucopyranoside]]	8,925 cpm/g	–	5.8 μ Eq/g	–	13.8 μ Eq/g	–	42%	31%	2%	–
CC(C)=CCC[C@](C)(O[C@@H]1O[C@H](CO[C@@H]2O[C@@H](C)[C@H](O)[C@@H](O)[C@H]2O)[C@@H](O)[C@H](O)[C@H]1O)[C@H]1CC[C@]2(C)[C@@H]1[C@H](O)C[C@@H]1[C@@]3(C)CC[C@H](O)C(C)(C)[C@@H]3CC[C@]12C [gynosaponin N, 20S-Protopanaxadiol-20-O-[α-L-rhamnopyranosyl (1→6)-β-D-glucopyranoside]]	9,870 cpm/g	–	5.2 μ Eq/g	–	13.3 μ Eq/g	–	46%	38%	6%	–
CC(C)=CCC[C@](C)(O[C@@H]1O[C@H](CO[C@@H]2OC[C@@H](O)[C@H](O)[C@H]2O)[C@@H](O)[C@H](O)[C@H]1O)[C@H]1CC[C@]2(C)[C@@H]1[C@H](O)C[C@@H]1[C@@]3(C)CC[C@H](O[C@@H]4O[C@H](CO)[C@@H](O)[C@H](O)[C@H]4O[C@@H]4OC[C@@H](O)[C@H](O)[C@H]4O)C(C)(C)[C@@H]3CC[C@]12C [gynosaponin Q, 20S-Protopanaxadiol-3-O-[β-D-xylopyranosyl (1→2)-β-D-glucopyranoside]-20-O-[β-D-xylopyranosyl (1→6)-β-D-glucopyranoside]]	11,620 cpm/g	–	5.8 μ Eq/g	–	13.5 μ Eq/g	–	54%	31%	4%	–
CC(C)=CCC[C@](C)(O[C@@H]1O[C@H](CO[C@@H]2OC[C@@H](O)[C@H](O)[C@H]2O)[C@@H](O)[C@H](O)[C@H]1O)[C@H]1CC[C@]2(C)[C@@H]1[C@H](O)C[C@@H]1[C@@]3(C)CC[C@H](O)C(C)(C)[C@@H]3CC[C@]12C [gynosaponin M, 20S-Protopanaxadiol-20-O-[β-D-xylopyranosyl (1→6)-β-D-glucopyranoside]]	12,650 cpm/g	–	6.4 μ Eq/g	–	13.5 μ Eq/g	–	59%	24%	4%	–
ACTH: ACTH, used at 1 μg/ml to decompose fat in fat cells (SYSMEHFRWGKPVGKKRRPVKVYPNGAEDESAEAFPLEF; Corticotropin; UniProt P01189 138-176, looked up) [reference compound]	–	–	–	–	–	–	–	–	–	8.4 μ Eq/g
